Measured values from patent US20220211038A1, “COMPOSITION AND METHOD FOR PROTECTING PLANT AGAINST DISEASE AND PEST” (SUMITOMO CHEMICAL COMPANY, LIMITED, priority 2019, published 2022).

Legend:
[1] = test system: powdery mildew (Sphaerotheca fuliginea); test: Cucumber powdery mildew control, spray on plantlets (Test Example 2); format: in vivo; settings: 10 days
From the text: Fluopyram and fluxapyroxad were respectively mixed with surfactant and crushed in a grinding equipment to obtain a crushed composition. The crushed composition was then mixed with tap water so as to have the compound at the concentration described in Table 2 to obtain spray liquid. The spray liquid was sprayed onto cucumber (Cultivar: Hanjiro Fushinari) plantlet at run-off water volume. Plantlets were then air dried before artificially inoculated by putting the test plantlets in the same room where cucumber with powdery mildew (Sphaerotheca fuliginea) symptoms were grown. The plantlet were grown in the room for 10 days and the degree of disease severity on leaves was measured (hereinafter referred to as “treated group”).
The same operation was carried out […] (hereinafter referred to as “untreated group”).
The controlling value was calculated from each of the obtained degree of disease severity on leaves of the treated group and the untreated group respectively by the following “Equation 2”.
Controlling value (%)=100×(X−Y)/X Equation 2
X: Degree of disease severity on leaves in the untreated group
Y: Degree of disease severity on leaves in the treated group

[2] = test system: Septoria leaf blotch (Mycosphaerella graminicola); test: Growth inhibition of Septoria leaf blotch in YBG medium, microtiter plate, absorbance at 600 nm (Test Example 1); format: cell-based; settings: 18° C., four days
Protocol: Fluopyram and fluxapyroxad were respectively dissolved in dimethyl sulfoxide, and agent solutions were prepared so that the concentration of each compound was 100 times the concentration described in Table 1. The agent solution was dispensed into each well of a microtiter plate (96 wells) in 1 μl portion, and then 99 μL of YBG medium to which conidia of Septoria leaf blotch (Mycosphaerella graminicola) was inoculated in advance (which was prepared by dissolving 10 g of yeast extract, 10 g of Bacto Peptone, and 20 mL of glycerol into 1 L of water, followed by sterilizing the medium) was dispensed into each of the well to which the agent solution was dispensed. The plate was cultivated at 18° C. for four days, thereby allowing Septoria leaf blotch to undergo proliferation, and the absorbance at 600 nm of a sample in each well of the microtiter plate was then measured to examine a degree of growth of Septoria leaf blotch (hereinafter referred to as “treated group”). Whereas, Septoria leaf blotch was grown similarly to the case of the treated group using dimethyl sulfoxide instead of the agent solution, and the degree of growth was measured (hereinafter referred to as “untreated group”). The efficacy was calculated from each of the obtained degree of growth of the treated group and the untreated group respectively by the following “Equation 1”.
Efficacy (%)=100×(X−Y)/X Equation 1
X: Degree of growth of fungus in the untreated group
Y: Degree of growth of fungus in the treated group

Structure (SMILES): O=C(NCCc1ncc(C(F)(F)F)cc1Cl)c1ccccc1C(F)(F)F [Fluopyram]
- Controlling value (%) ([1]; Fluopyram 0.4 mg/L alone): 32%
- Controlling value (%) ([1]; Fluopyram 4.0 mg/L alone): 50%
- Efficacy (%) ([2]; Fluopyram 0.1 ppm alone): 24%
- Efficacy (%) ([2]; Fluopyram 1.75 ppm alone): 60%

Structure (SMILES): Cn1cc(C(=O)Nc2ccccc2-c2cc(F)c(F)c(F)c2)c(C(F)F)n1 [Fluxapyroxad]
- Controlling value (%) ([1]; Fluxapyroxad 0.4 mg/L alone): 16%
- Controlling value (%) ([1]; Fluxapyroxad 2.0 mg/L alone): 34%
- Efficacy (%) ([2]; Fluxapyroxad 0.18 ppm alone): 71%
- Efficacy (%) ([2]; Fluxapyroxad 0.5 ppm alone): 82%
